From patent US11066650B2, “Methods for the in vitro manufacture of gastric fundus tissue and compositions related to same” (Children's Hospital Medical Center, priority 2016, dated 2021)

What was measured:
[1] = tested on: posterior foregut spheroids; test: Gastric specification of posterior foregut spheroids into fundic hGOs (qPCR/staining); assay type: cell-based, human
Protocol: Posterior foregut spheroids were collected and transferred to a three-dimensional culture system as previously described^36. Briefly, spheroids were suspended in 50 μl Matrigel (BD Biosciences) and plated as a droplet into 24-well plates. The matrigel was allowed to solidify for 10 minutes in the tissue culture incubator, then overlayed with basic gut media (BGM) containing growth factors and/or small molecule agonsists. BGM consisted of Advanced DMEM/F12 media (Gibco) supplemented with N2 (1×; Invitrogen), B27 (1×; Invitrogen), HEPES ([…]; Gibco), L-glutamine, penicillin/streptomycin, and EGF (100 ng/ml; R&D Systems). During days 6-9, spheroids were cultured with RA and noggin to specify the antral lineage. For fundic specification, CHIR was added during this stage. Antral hGOs were subsequently cultured in BGM with only EGF. Fundic hGOs were continuously exposed to CHIR from day 6-30. […] On day 20, organoids were collected and re-plated at a dilution of 1:10-1:20.
(§1) Total RNA was isolated using Nucleospin RNA II kit (Machery Nagel) and converted to cDNA as previously described7. qPCR was performed on Quantstudio 6 (Applied Biosystems) using Quantitect SYBR-Green master mix (Qiagen), and primer sequences are listed below.

hFGOs [2] = test: Screen for factors that increase parietal cell differentiation in hFGOs (qPCR at day 34); assay type: cell-based, human; conditions: for parietal cell gene expression (ATP4A and ATP4B): day 30 hFGOs exposed two days, analysed at day 34
Protocol: For screening experiments to identify factors that increase parietal cell differentiation, hFGOs were grown to day 30, then exposed for two days to individual signaling pathway agonists and antagonists: DAPT (1 μM; Stemgent), SB431542 (10 μM; Stemgent), BMP4 (50 ng/ml; R&D Systems), PD0325901 (2 μM; Stemgent), Gastrin (10 nM; Sigma Aldrich), Dexamethasone (50 nM; Sigma Aldrich), and Wnt5a (50 ng/ml; R&D Systems). Following treatment, hFGOs were grown for two more days to day 34, then analyzed by qPCR.
as §1

hFGOs [3] = test: Acid secretion assay, luminal pH by SNARF-5F in fundic hGOs; assay type: cell-based, human
Protocol: Acid secretion assays were performed as previously described (Schumacher et al., 2015). hGOs were grown in the chambered coverglass (Thermo Scientific) and the chamber was placed on an inverted confocal microscope (Zeiss LSM 710), and experiments were performed under 5% CO2 and 37° C. conditions (incubation chamber, PeCon, Erbach, Germany).
(§2) Freshly isolated mouse gastric fundic glands or cultured hGO were incubated with acridine orange (10 μM), then acridine orange fluorescence was excited at 458 nm or 488 nm and images were collected at 600-650 nm (Red) or 500-550 nm (Green), respectively. On the other hand, to monitor hGOs luminal pH, the ratiometric pH sensitive dye, 5-(and-6)-carboxy SNARF-5F (5 mM stock: EX 560 nm, EM 565-605 (Green) and 620-680 (Red) nm: Invitrogen) was microinjected (46-92 nl) into the lumen and monitored. Fluorescent dye also added into medium. Histamine (100 μM; Sigma) was added to media, while famotidine (100 μM; Sigma) or omeprazole (100 μM; Sigma) were pre-incubated at least 30 min before histamine. Images were analyzed using MetaMorph software (Molecular Devices, Downingtown, Pa.). Background corrected 620-680/565-605 nm ratio values were converted to pH using a standard curve.

hAGOs = conditions: histamine 100 μM
Protocol: as §2, with “Acid secretion assays were performed as previously described (Schumacher et al., 2015). hGOs were grown in the chambered coverglass (Thermo Scientific) and the chamber was placed on an inverted confocal microscope (Zeiss LSM 710), and experiments were performed under 5% CO2 and 37° C. conditions (incubation chamber, PeCon, Erbach, Germany). Freshly” for “Freshly”, “Histamine (100 μM;” left out

[4] = tested on: isolated mouse gastric glands; conditions: histamine, after 60 minutes
Protocol: as §2, with “Acid secretion assays were performed as previously described (Schumacher et al., 2015). hGOs were grown in the chambered coverglass (Thermo Scientific) and the chamber was placed on an inverted confocal microscope (Zeiss LSM 710), and experiments were performed under 5% CO2 and 37° C. conditions (incubation chamber, PeCon, Erbach, Germany). Freshly” for “Freshly”, “Histamine (100 μM;” left out

hFGOs [5] = conditions: histamine, hFGO glands
Protocol: as §2, with “Acid secretion assays were performed as previously described (Schumacher et al., 2015). hGOs were grown in the chambered coverglass (Thermo Scientific) and the chamber was placed on an inverted confocal microscope (Zeiss LSM 710), and experiments were performed under 5% CO2 and 37° C. conditions (incubation chamber, PeCon, Erbach, Germany). Freshly” for “Freshly”, “Histamine (100 μM;” left out

[6] = CHIR for three days (days 6-9), analysed at day 9

Cc1c[nH]c(-c2cnc(NCCNc3ccc(C#N)cn3)nc2-c2ccc(Cl)cc2Cl)n1 [CHIR99021]
PDX1 expression [1, 6]: nearly complete repression | SOX2 and GATA4 levels [1, 6]: unaffected | expression of IRX2, IRX3, and IRX5 [1, 6]: significantly increased expression | intestinal markers CDX2, MUC2, CCK, or SCT ([1]; CHIR-treated hGOs): did not exhibit a significant increase | fundic gene expression ([1]; continued CHIR treatment through at least day 29): stable induction of fundic gene expression | specification of fundic identity ([1]; three-day pulse of CHIR from days 6-9, later stages): not sufficient to irreversibly specify a fundic identity

O=C(NOC[C@H](O)CO)c1ccc(F)c(F)c1Nc1ccc(I)cc1F [PD0325901]
parietal cell gene expression (ATP4A and ATP4B) (hFGOs [2]): substantial up-regulation

NC(N)=Nc1nc(CSCCC(N)=NS(N)(=O)=O)cs1 [famotidine]
histamine-induced decrease in luminal pH (acidification) (hFGOs [3]; 100 μM, pre-incubated at least 30 min before histamine 100 μM): blocked

NCCc1c[nH]cn1 [histamine]
luminal pH response (hFGOs [3]; histamine 100 μM): swift and marked decrease in luminal pH | luminal pH response (hAGOs): no response | acridine orange (AO) accumulation [4]: induced acridine orange (AO) dye accumulation in a canalicular-type pattern | acridine orange (AO) accumulation (hFGOs [5]): AO accumulated in acidified cellular vesicles

B1: BMP4: growth factor, BMP signalling activator (R&D Systems) (protein, UniProt P12644 293-408, looked up)
Bone morphogenetic protein 4: SPKHHSQRARKKNKNCRRHSLYVDFSDVGWNDWIVAPPGYQAFYCHGDCPFPLADHLNSTNHAIVQTLVNSVNSSIPKACCVPTELSAISMLYLDEYDKVVLKNYQEMVVEGCGCR
CDX2 expression ([1]; Noggin replaced with BMP4, with Wnt/β-catenin activation (CHIR)): robust expression of the intestinal transcription factor | effect of PD03 on parietal cell gene expression (hFGOs [2]; BMP4 added to PD03, data not shown): could enhance the effect of PD03 | parietal cell gene expression (ATP4A and ATP4B) (hFGOs [2]): did not affect PC gene expression

B2: FGF10: growth factor (R&D Systems) added to fundic hGOs day 20-30 (protein, UniProt O15520 38-208, looked up)
Fibroblast growth factor 10: QALGQDMVSPEATNSSSSSFSSPSSAGRHVRSYNHLQGDVRWRKLFSFTKYFLKIEKNGKVSGTKKENCPYSILEITSVEIGVVAVKAINSNYYLAMNKKGKLYGSKEFNNDCKLKERIEENGYNTYASFNWQHNGRQMYVALNGKGAPRRGQKTRRKNTSAHFLPMVVHS
glandular morphogenesis driven by CHIR ([1]; FGF10 50 ng/ml, day 20-30, data not shown): enhance the glandular morphogenesis
